Assay results reported in patent US12178859B2, “Anti inflammatory composition” (WAKO FILTER TECHNOLOGY CO., LTD., priority 2019, dated 2024).

Columns and labels:
[1] = system: human neutrophil suspension; assay: Neutrophil adhesion test with LPS-activated human neutrophils (96-well plate, crystal violet, OD620); type: cell-based; settings: human neutrophils activated with E. coli lipopolysaccharide, 1 hour at 37° C.; control = 100%; FIG. 2A / FIG. 2B
Method: (§1) Neutrophils were collected from blood. Specifically, neutrophils were isolated from whole blood collected from healthy humans or dogs using Polymorphprep (Cosmo Bio). The separated neutrophil samples were centrifuged at 2000 rpm for about 40 minutes, then the supernatant was removed, and the residue was transferred to RPMI (SIGMA) medium supplemented with 10-mass % fetal bovine serum (Tissue Culture Biologicals, USA) and diluted to obtain a cell count of 4×10^6 cells/ml, preparing human and canine neutrophil suspensions, respectively. […] The neutrophil adhesion rate was determined as follows. The value obtained by quantifying the activated neutrophils adhered to the wells in the control without containing lysozyrne-chitosan complex or decanoic acid was set as 100%, and compared with the value obtained by quantifying the activated neutrophils adhered to the wells in the same way for the test substances in each Example and Comparative Example. Neutrophil Adhesion Rate (%)=[Quantitative Value of Adhesive Activated Neutrophils in Each Example and Comparative Example]/[Quantitative Value of Adhesive Activated Neutrophils in Control]×100 In the present invention, the ability to suppress the neutrophil adhesive reaction was evaluated by the following procedure. […]

[2] = system: canine neutrophil suspension; assay: Neutrophil adhesion test with LPS-activated canine neutrophils (96-well plate, crystal violet, OD620 and microscopy); type: cell-based, dogs; settings: 0.2 mg/ml lysozyme-chitosan complex and/or 0.4 mg/ml decanoic acid, magnification 40 times, FIG. 3B to 3D
Method: as §1

## CCCCCCCCCC(=O)O [decanoic acid]
[1]
  neutrophil adhesion rate (%) as the concentration of test substance increases: did not decrease
[2]
  distribution of adherent neutrophils stained with crystal violet (photomicrograph): widely distributed
